According to patent publication US6352958B1, “Cycloimido-substituted benzofused heterocyclic herbicides” (FMC Corporation, priority 1997, dated 2002):

Tests used:
Assay type in all cases: in vivo
[1] = test system: field corn (Zea mays var. Pioneer 3732); experiment: Preemergence herbicidal activity, corn; details: Rate of Application 0.3 Kg/Ha, examined after 12-17 days
[2] = test system: Johnsongrass (Sorghum halepense); experiment: Postemergence herbicidal activity, johnsongrass; details: rate of application 0.3 Kg/Ha, rated after 12-17 days
[3] = test system: soybean (Glycine max var. Winchester); experiment: Postemergence herbicidal activity, soybean; details: rate of application 0.3 Kg/Ha, rated after 12-17 days
[4] = test system: common cocklebur (Xanthium strumarium L.); experiment: Postemergence herbicidal activity, cocklebur; details: rate of application 0.3 Kg/Ha, rated after 12-17 days
[5] = test system: velvetleaf (Abutilon theophrasti); experiment: Preemergence herbicidal activity, velvetleaf; details: Rate of Application 0.3 Kg/Ha, examined after 12-17 days
[6] = test system: wheat (Triticum aestivum var. Lew); experiment: Postemergence herbicidal activity, wheat; details: rate of application 0.3 Kg/Ha, rated after 12-17 days
[7] = test system: blackgrass (Aloepecurus myosuroides); experiment: Preemergence herbicidal activity, blackgrass; details: Rate of Application 0.3 Kg/Ha, examined after 12-17 days
Procedure: The benzofused heterocyclic compounds of this invention were tested for pre- and postemergence herbicidal activity using a variety of crops and weeds. The test plants included soybean (Glycine max var. Winchester), field corn (Zea mays var. Pioneer 3732), wheat (Triticum aestivum var. Lew), morningglory (Ipomea lacunosa or Ipomea hederacea), velvetleaf (Abutilon theophrasti), green foxtail (Setaria viridis), Johnsongrass (Sorghum halepense), blackgrass (Aloepecurus myosuroides), common chickweed (Stellaria media), and common cocklebur (Xanthium strumarium L.).
For preemergence testing, two disposable fiber flats (8 cm×15 cm×25 cm) for each rate of application of each candidate herbicide were filled to an approximate depth of 6.5 cm with steam-sterilized sandy loam soil. The soil was leveled and impressed with a template to provide five evenly spaced furrows 13 cm long and 0.5 cm deep in each flat. Seeds of soybean, wheat, corn, green foxtail, and johnsongrass were planted in the furrows of the first flat, and seeds of velvetleaf, morningglory, common chickweed, cocklebur, and blackgrass were planted in the furrows of the second flat. The five-row template was employed to firmly press the seeds into place. A topping soil of equal portions of sand and sandy loam soil was placed uniformly on top of each flat to a depth of approximately 0.5 cm. Flats for postemergence testing were prepared in the same manner except that they were planted 9-14 days prior to the preemergence flats and were placed in a greenhouse and watered, thus allowing the seeds to germinate and the foliage to develop.
In both pre- and postemergence tests, a stock solution of the candidate herbicide was prepared by dissolving 0.27 g of the compound in 20 mL of water/acetone (50/50) containing 0.5% v/v sorbitan monolaurate. For an application rate of 3000 g/ha of herbicide a 10 mL portion of the stock solution was diluted with water/acetone (50/50) to 45 mL.
The preemergence flats were initially subjected to a light water spray. The four flats were placed two by two along a conveyor belt (i.e., the two preemergence followed by the two postemergence flats). The conveyor belt fed under a spray nozzle mounted about ten inches above the post-emergent foliage. The preemergent flats were elevated on the belt so that the soil surface was at the same level below the spray nozzle as the foliage canopy of the postemergent plants. The spray of herbicidal solution was commenced and once stabilized, the flats were passed under the spray at a speed to receive a coverage equivalent of 100 L/ha. At this coverage the application rates are those shown in the above table for the individual herbicidal solutions. The preemergence flats were watered immediately thereafter, placed in the greenhouse and watered regularly at the soil surface. The postemergence flats were immediately placed in the green-house and not watered until 24 hours after treatment with the test solution. Thereafter they were regularly watered at ground level. After 12-17 days the plants were examined and the phytotoxicity data were recorded.
Phytotoxicity data were taken as percent control. Percent control was determined by a method similar to the 0 to 100 rating system disclosed in “Research Methods in Weed Science,” 2nd ed., B. Truelove, Ed.; Southern Weed Science Society; Auburn University, Auburn, Ala., 1977.

[8] = test system: morningglory (Ipomea lacunosa or Ipomea hederacea); experiment: Preemergence herbicidal activity, morningglory; details: Rate of Application 0.3 Kg/Ha, examined after 12-17 days
[9] = test system: common chickweed (Stellaria media); experiment: Preemergence herbicidal activity, chickweed; details: Rate of Application 0.3 Kg/Ha, examined after 12-17 days
[10] = test system: green foxtail (Setaria viridis); experiment: Preemergence herbicidal activity, green foxtail; details: Rate of Application 0.3 Kg/Ha, examined after 12-17 days
[11] = test system: Johnsongrass (Sorghum halepense); experiment: Preemergence herbicidal activity, johnsongrass; details: Rate of Application 0.3 Kg/Ha, examined after 12-17 days
[12] = test system: morningglory (Ipomea lacunosa or Ipomea hederacea); experiment: Postemergence herbicidal activity, morningglory; details: rate of application 0.3 Kg/Ha, rated after 12-17 days
[13] = test system: green foxtail (Setaria viridis); experiment: Postemergence herbicidal activity, green foxtail; details: rate of application 0.3 Kg/Ha, rated after 12-17 days
[14] = test system: field corn (Zea mays var. Pioneer 3732); experiment: Postemergence herbicidal activity, corn; details: rate of application 0.3 Kg/Ha, rated after 12-17 days
[15] = test system: velvetleaf (Abutilon theophrasti); experiment: Postemergence herbicidal activity, velvetleaf; details: rate of application 0.3 Kg/Ha, rated after 12-17 days
[16] = test system: wheat (Triticum aestivum var. Lew); experiment: Preemergence herbicidal activity, wheat; details: Rate of Application 0.3 Kg/Ha, examined after 12-17 days
[17] = test system: soybean (Glycine max var. Winchester); experiment: Preemergence herbicidal activity, soybean; details: Rate of Application 0.3 Kg/Ha, examined after 12-17 days
[18] = test system: common chickweed (Stellaria media); experiment: Postemergence herbicidal activity, chickweed; details: rate of application 0.3 Kg/Ha, rated after 12-17 days
[19] = test system: common cocklebur (Xanthium strumarium L.); experiment: Preemergence herbicidal activity, cocklebur; details: Rate of Application 0.3 Kg/Ha, examined after 12-17 days

| SMILES | PREEMERGENCE HERBICIDAL ACTIVITY (% CONTROL) CRN [1] [%] | Postemergence herbicidal activity (% control) SORHA [2] [%] | Postemergence herbicidal activity (% control) SOY [3] [%] | Postemergence herbicidal activity (% control) XANPE [4] [%] | PREEMERGENCE HERBICIDAL ACTIVITY (% CONTROL) ABUTH [5] [%] | Postemergence herbicidal activity (% control) WHT [6] [%] | PREEMERGENCE HERBICIDAL ACTIVITY (% CONTROL) ALOMY [7] [%] | PREEMERGENCE HERBICIDAL ACTIVITY (% CONTROL) IPOSS [8] [%] | PREEMERGENCE HERBICIDAL ACTIVITY (% CONTROL) STEME [9] [%] | PREEMERGENCE HERBICIDAL ACTIVITY (% CONTROL) SETVI [10] [%] | PREEMERGENCE HERBICIDAL ACTIVITY (% CONTROL) SORHA [11] [%] | Postemergence herbicidal activity (% control) IPOSS [12] [%] | Postemergence herbicidal activity (% control) SETVI [13] [%] | Postemergence herbicidal activity (% control) CRN [14] [%] | Postemergence herbicidal activity (% control) ABUTH [15] [%] | PREEMERGENCE HERBICIDAL ACTIVITY (% CONTROL) WHT [16] [%] | PREEMERGENCE HERBICIDAL ACTIVITY (% CONTROL) SOY [17] [%] | Postemergence herbicidal activity (% control) STEME [18] [%] | PREEMERGENCE HERBICIDAL ACTIVITY (% CONTROL) XANPE [19] [%] |
| --- | --- | --- | --- | --- | --- | --- | --- | --- | --- | --- | --- | --- | --- | --- | --- | --- | --- | --- | --- |
| COCc1nc2c(-n3c(=O)cc(C(F)(F)F)n(C)c3=O)c(F)cc(Br)c2o1 [Compound 96] | 95 | 100 | 100 | 100 | 100 | 90 | 90 | 100 | 100 | 100 | 95 | 100 | 100 | 90 | 100 | 90 | 100 | 100 |  |
| Cn1c(C(F)(F)F)cc(=O)n(-c2c(F)cc(Br)c3oc(COc4ccccc4)nc23)c1=O [Compound 99] | 60 | 65 | 80 | 70 | 100 | 40 | 60 | 100 | 100 | 100 | 65 | 100 | 70 | 80 | 100 | 50 | 40 | 95 |  |
| CC(=O)N(C(C)=O)c1nc2c(-n3c(=O)cc(C(F)(F)F)n(C)c3=O)c(F)cc(Br)c2o1 [Compound 100] | 80 | 40 | 85 | 50 | 100 | 40 | 60 | 100 | 20 | 50 | 70 | 100 | 30 | 60 | 90 | 30 | 40 | 50 |  |
| CC(=O)OC(C)c1cc2c(Cl)cc(F)c(-n3c(=O)cc(C(F)(F)F)n(C)c3=O)c2o1 (centres unmarked) [Compound 246] | 100 | 100 | 95 | 100 | 100 | 100 | 100 | 100 | 100 | 100 | 100 | 100 | 100 | 100 | 100 | 100 | 100 | 100 | 100 |
| CC(OC(=O)c1ccccc1)c1cc2c(Cl)cc(F)c(-n3c(=O)cc(C(F)(F)F)n(C)c3=O)c2o1 (centres unmarked) [Compound 248] | 95 | 100 | 80 | 100 | 100 | 50 | 95 | 100 | 100 | 100 | 100 | 100 | 100 | 95 | 100 | 90 | 100 | 100 | 100 |
